For test [1], the target named is SbSOMT E310A (Sorghum bicolor, UniProt A0A1B6PFV1, E310A). Kind of test: biochemical. In kind it is binding. As for the experimental part: (§1) Desired mutations of SbSOMT were introduced into its construct using specific primers (Table 11). Expression constructs were transformed into Rosetta™ (DE3) competent Escherichia coli cells (Novagen, Germany). Protein expression was induced with 0.1 mM Isopropyl-β-thiogalactopyranoside (IPTG) overnight at 16° C. E. coli cells were harvested, resuspended in lysis buffer (20 mM Tris buffer pH 7.9, 300 mM NaCl, 2.5 mM β-mercaptoethanol), and lysed by sonication. Crude proteins were loaded onto a HisTrap HP column (Cytiva, USA) connected to a AKTA pure chromatography system (Cytiva, USA). Column was washed with 15 column volumes of lysis buffer with 50 mM imidazole. Proteins were eluted over a gradient of 50-500 mM imidazole. Eluate fractions with the target OMT were pooled, digested with TEV protease, and simultaneously dialyzed against a low salt buffer (20 mM Tris pH 7.9, 50 mM NaCl, 2.5 mM β-mercaptoethanol) overnight at 4° C. The dialyzed sample was filtered and flowed through HisTrap to remove His-tagged components. The flowthrough was then loaded to HiTrap Q FF columns (Cytiva, USA) over a gradient of 50-1000 mM NaCl. Polishing was achieved via size-exclusion chromatography using the storage buffer (100 mM HEPES pH 7.9, 100 mM NaCl) as mobile phase. SsSTS was purified under the same conditions except that the pH was adjusted to 7.0 for all buffers. Proteins were concentrated by ultrafiltration and flash frozen for storage at −80° C.
(§2) Isothermal titration calorimetry (ITC) assays were conducted with MicroCal iTC200 (Malvern Panalytical, UK). […] Both cell sample and titrant were equilibrated to ITC buffer consisting of 100 mM HEPES pH 7.9 with 2.5% (v/v) PEG 400. For ITC assays involving pterostilbene, PEG 400 concentration was increased to 5% (v/v). Each run incorporated an initial delay of 60 s prior to the first injection (0.5 μl) and spaced 150 s between the subsequent 19 injections (2.0 μl) at 25° C. During the runs, the cell was continuously stirred at 750 rpm by flat paddle. Results were analysed based on the 2nd to 20th injections using the Origin (MicroCal Software, USA) and PEAQ-ITC software (Malvern Panalytical, UK).

Test [2] concerns SbSOMT H282A. Kind of test: Catalytic assay, SbSOMT H282A mutant protein. The test is classed as biochemical, Sorghum bicolor. Conditions: one-hour incubation. An excerpt:
Data are expressed as yields relative to that of wild-type SbSOMT protein (WT). […] Data are expressed as yields relative to that of wild-type SbSOMT protein (WT). Values refer to means±SD (n=3). Asterisks indicate significant differences between mutant protein and WT (Student's t-test, ***: p<0.001). Tricin was used as an internal standard for quantitation. […] Dots represent individual data points.
Desired mutations of SbSOMT were introduced into its construct using specific primers (Table 11). Expression constructs were transformed into Rosetta™ (DE3) competent Escherichia coli cells (Novagen, Germany). Protein expression was induced with 0.1 mM Isopropyl-β-thiogalactopyranoside (IPTG) overnight at 16° C. E. coli cells were harvested, resuspended in lysis buffer (20 mM Tris buffer pH 7.9, 300 mM NaCl, 2.5 mM β-mercaptoethanol), and lysed by sonication. […]
For initial screening of OMT activities, purified OMT enzymes (10 μg) were incubated in 100 mM HEPES buffer (pH 7.9), 200 μM S-adenosyl-L-methionine (SAM) and 100 μM of phenylpropanoid or stilbene substrates (final volume 200 μl) at 30° C. for 2 h. Enzyme kinetics were determined by incubating 1 μg protein with 100 mM HEPES buffer (pH 7.9), 300 μM SAM, and stilbene concentrations ranging from 5 to 200 μM at 30° C. for 5 min. […]

Test [3] deals with SsCOMT. Kind of test: Isothermal titration calorimetry (ITC), SsCOMT wild type. Conditions: 25° C., SsCOMT WT, mean ± standard error from curve fitting. The test is classed as binding, Saccharum spontaneum. As for the experimental part:
as §2

Test [4] addresses SbSOMT F337N. In words: ITC, SbSOMT F337N mutant protein. The test is classed as binding, Sorghum bicolor. As for the experimental part: as §1, with “Polishing was achieved via size-exclusion chromatography using the storage buffer (100 mM HEPES pH 7.9, 100 mM NaCl) as mobile phase. SsSTS was purified under the same conditions except that the pH was adjusted to 7.0 for all buffers. Proteins were concentrated by ultrafiltration and flash frozen for storage at −80° C.” left out
Isothermal titration calorimetry (ITC) assays were conducted with MicroCal iTC200 (Malvern Panalytical, UK). […] Results were analysed based on the 2nd to 20th injections using the Origin (MicroCal Software, USA) and PEAQ-ITC software (Malvern Panalytical, UK).
Background: ITC needs no label: the signal is the heat of the interaction.

For test [5], the target named is SbSOMT E342A (Sorghum bicolor, UniProt A0A1B6PFV1, E342A). In words: biochemical. As for the experimental part: as §1, §2
Test [6] addresses SbSOMT I144N (Sorghum bicolor, UniProt A0A1B6PFV1, I144N). In words: biochemical. On the procedure: as §1, §2
Test [7] deals with SbSOMT D283A (Sorghum bicolor, UniProt A0A1B6PFV1, D283A). Kind of test: biochemical. As for the experimental part:
as §1, §2

The target of test [8] is SbSOMT H282N/D283A (Sorghum bicolor, UniProt A0A1B6PFV1, D283A/H282N). In words: biochemical. As for the experimental part:
as §1, §2

Molecules are shown by their SMILES. Where two headings read alike, the source gives them in different places.

Data on one molecule can be found in US20250283056A1, “MODIFIED O-[…] USEFUL FOR PRODUCTION OF O-METHYLATED PHENOLIC NATURAL PRODUCTS” (The University of Hong Kong, priority 2024, published 2025).

For orientation: Kd means the free concentration of one partner at which half of the binding sites on the other are occupied at equilibrium, for simple one-to-one binding.

For the molecule `Oc1ccc(C=Cc2cc(O)cc(O)c2)cc1` [Resveratrol, resveratrol], the Kd in test [1] is 18.5 ± 2.58 µM; in test [3] it was 2.78 ± 0.33 µM; in test [4] it was “No binding”; in test [4] (listed as resveratrol), “undetectable binding affinities”; in test [5], 11.1 ± 0.75 µM; in test [6], 152 ± 31.1 µM. The Kd result in test [6] (SbSOMT mutant I144N, N fixed at 0.6 to estimate the Kd, ± SE) is “significantly weakened binding”; in test [7], 1.31 µM; in test [8], 32.9 µM. Also, the “Stoichiometry, N” value in test [1] (SbSOMT mutant E310A, ITC) turned out to be 0.36 ± 0.04; in test [5] (SbSOMT mutant E342A, ITC) it was 0.75 ± 0.01; in test [7] (SbSOMT mutant D283A, ITC), 0.58 ± 0.01; in test [8] (SbSOMT mutant H282N/D283A, ITC) it was 0.61 ± 0.17. Also, the “catalytic activity with resveratrol” value in test [2] was “catalytically defective”.
